Data taken from paper PMC3338619, “Ligand Binding Study of Human PEBP1/RKIP: Interaction with Nucleotides and Raf-1 Peptides Evidenced by NMR and Mass Spectrometry” (PLoS ONE, 2012).

Key:
hPEBP1 [1] = biological target: T1, hPEBP1 (Homo sapiens, UniProt P30086); test: 15N-1H HSQC NMR titration of ligands with hPEBP1 (KD from CSP fitting); type: binding
T1 construct: all residues except Met1, Val3, Asp35, Gln45, Lys47 and Lys187 (total residues: 187;); made in house; host or cells: E. coli BL21 (DE3), pET31b
T1 sequence (P30086 whole entry): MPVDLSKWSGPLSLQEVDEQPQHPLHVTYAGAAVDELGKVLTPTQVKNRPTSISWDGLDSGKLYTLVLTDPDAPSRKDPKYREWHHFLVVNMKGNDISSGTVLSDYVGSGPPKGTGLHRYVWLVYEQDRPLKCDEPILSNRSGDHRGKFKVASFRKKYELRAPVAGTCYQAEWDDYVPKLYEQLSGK
Procedure: The interactions between hPEBP1 100–270 µM and the four selected ligands were investigated by ^15N-^1H heteronuclear single quantum coherence (HSQC) NMR experiments with a sensitivity enhancement and gradient selected coherence. ^1H, ^15N HSQC spectra were recorded at 20 or 30°C on a Bruker 500 MHz or a Varian Inova 600 MHz spectrometer. Two experimental sets of conditions were tested: MES 10 mM pH 6.5 at 20°C, and HEPES 10 mM, NaCl 100 mM pH 7.5 at 30°C.
In the simple case of protein-ligand interactions, the free and the bound states are observed during the titration. The interpretation of an NMR spectrum, such as an HSQC, depends on the rate of exchange between the bound and the free forms. Three different cases can be observed. If the complex rate of dissociation is very slow, two separate resonances are observed at the positions corresponding to the chemical shifts characteristic of the two states (free and bound). During the titration, the intensity of the free resonance decreases while the bound resonance one appears and goes up. This regime corresponds to slow chemical exchange on the NMR time scale. If the complex rate of dissociation is very fast, only a single resonance is observed, whose position is the average of the chemical shifts of the two states, weighted by their relative populations. In this case, Chemical Shift Perturbations (CSP) are observed, i.e. the chemical shift evolves as the ligand concentration increases. This regime corresponds to fast exchange on the NMR time scale, and is typical for weaker affinity complexes. In the intermediate chemical exchange case, in addition to CSP, complex changes will affect the line shape that results in the observation of very broad signals with low intensity.
In the fast exchange regime, CSP can be measured from ^15N-HSQC spectra using the equation: [drawing 1] (1) with δ being the chemical shift in ppm.
A threshold value was estimated in order to determine significant CSP. In a first step, all the CSP are considered and the average (<CSP>) plus two times the standard deviation (σ) is calculated. Then, the highest CSP (CSP≥<CSP>+2σ) are removed from the data and new average and new standard deviation calculated. The operation is repeated until the convergence is reached.
Once the residues involved in the binding were selected, the experimental data were fitted with the quadratic equation 2 using SigmaPlot 9.0 in order to obtain the dissociation constant value (KD): [drawing 2] (2) where [P]0 and [L] are the total protein and ligand concentrations, respectively. A KD value was estimated for each residue involved in the binding, and then an average was calculated.

hPEBP1 [2] = biological target: T1, hPEBP1; test: Native mass spectrometry KD determination (bound protein fraction); type: binding; conditions: ammonium bicarbonate 20 mM pH 7.4/37°C, no NaCl; read-out: MS KD
Procedure: Non-labeled recombinant hPEBP1 purified as previously described was used for mass spectrometry analysis. To prevent Na^+ adduct formation, the commercial GTP and FMN nucleotides used in native MS were desalted. For this purpose, a protocol derived from the RNA-desalting procedure of Limbach et al. (1995) was set up.
All MS measurements were performed in an ESI-ion trap model Esquire HCT or Ultra HCT PTM Discovery (Bruker, Bremen, Germany), or in a maXis ESI-UHR-Qq-TOF (Bruker). Complexes were formed by incubating hPEBP1 with a range of ligand concentrations in ammonium bicarbonate 20 mM/formic acid buffer, pH 7.4 at 37°C or in ammonium acetate 20 mM, pH 6.6 at 20°C. After incubation, samples were treated with a Zeba micro gel filtration device with a 7 kDa cut-off (Thermo Scientific, Waltham, MA) prior to MS measurement, or analyzed directly in MS. The KD was determined by measuring the bound protein fraction by native MS. Details of the development of the native MS method for KD determination are described in the work of Jaquillard et al. (in press).

rPEBP1 = test system: rPEBP1; set-up: method as in PMID 20463977; conditions: pH 7.4/NaCl 100 mM/30°C, 130 mM GTP for 75 µM rPEBP1; cited from earlier work
[3] = HEPES 10 mM pH 7.5/NaCl 100 mM/30°C (near physiological conditions)

Structure (SMILES) | Kd (hPEBP1 [1]; [3]) [µM] | Kd (hPEBP1 [1]; MES 10 mM pH 6.5/20°C) [µM] | Kd (hPEBP1 [2]) [µM] | chemical shift perturbations for rPEBP1 (rPEBP1) | Kd (hPEBP1 [1]; HEPES 10 mM pH 7.5/20°C, from CSP data of 9 residues in fast exchange) [µM]
Nc1nc2c(ncn2[C@@H]2O[C@H](COP(=O)(O)OP(=O)(O)OP(=O)(O)O)[C@@H](O)[C@H]2O)c(=O)[nH]1 [GTP, Guanosine triphosphate] | 3420 ± 1970 | 669 ± 140 | 89 ± 48 | did not cause significant chemical shift perturbations | 
O=C1N[C@@H](Cc2ccccc2)CO1 [locostatin precursor, (S)-4-benzyl-2-oxazolidinone] | 173 ± 19 |  |  |  | 
Cc1cc2nc3c(=O)[nH]c(=O)nc-3n(C[C@H](O)[C@H](O)[C@H](O)COP(=O)(O)O)c2cc1C [FMN, flavin mononucleotide] | 252 ± 84 | 14 ± 9 | 5 ± 4 |  | 14 ± 11
